The values below come from US20260070945A1, “MACROCYCLIC IMMUNOMODULATORS” (Bristol-Myers Squibb Company, priority 2022, published 2026).

Structures are written as SMILES. Where a SMILES comes first, the peptide text is derived from it. Bridges are numbered along the chain shown (N, C = ends). [ ]: non-standard residue; d: D form. The star is where a group is joined. ξ: configuration not given here. Phe(3-CF3) = N[C@@H](Cc1cccc(C(F)(F)F)c1)C(=O)O; Phe(4-CF3) = N[C@@H](Cc1ccc(C(F)(F)F)cc1)C(=O)O; Phe(4-COOH) = N[C@@H](Cc1ccc(C(=O)O)cc1)C(=O)O; Bip = N[C@@H](Cc1ccc(-c2ccccc2)cc1)C(=O)O; Phe(3-F) = N[C@@H](Cc1cccc(F)c1)C(=O)O; Phe(3-Me) = Cc1cccc(C[C@H](N)C(=O)O)c1; Val(3-OH) = CC(C)(O)[C@H](N)C(=O)O; Cha = N[C@@H](CC1CCCCC1)C(=O)O; Cit = NC(=O)NCCC[C@H](N)C(=O)O; Ile(3ξ) = CCC(C)[C@H](N)C(=O)O; Thr(3ξ) = CC(O)[C@H](N)C(=O)O; Carboxymethyl = O=C(O)C*; NMeA = CN[C@@H](C)C(=O)O; Aun = NCCCCCCCCCCC(=O)O; Dab = NCC[C@H](N)C(=O)O; Nva = CCC[C@H](N)C(=O)O; AEEA = NCCOCCOCC(=O)O

T1 sequence (Q15116 25-288): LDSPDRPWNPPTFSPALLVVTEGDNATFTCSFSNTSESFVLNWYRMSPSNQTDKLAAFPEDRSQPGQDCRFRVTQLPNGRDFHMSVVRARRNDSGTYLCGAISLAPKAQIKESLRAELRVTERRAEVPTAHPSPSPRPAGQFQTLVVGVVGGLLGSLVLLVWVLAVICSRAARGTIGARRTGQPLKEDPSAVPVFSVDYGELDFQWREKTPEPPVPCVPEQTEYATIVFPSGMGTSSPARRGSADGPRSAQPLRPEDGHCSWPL

This assay has as its target T1, PD-1/PD-L1 interaction (PE-labeled human PD-L1-Ig binding to Jurkat cell line over-expressing human PD-1) (Homo sapiens, UniProt Q15116).
T1 construct: expressed in transfected cells; host or cells: Jurkat
In words: Jurkat-PD-1 Cell Binding High-Content Screening Assay (CBA). To be noted: PE-labeled PD-L1-Ig 20 nM final, Jurkat-hPD-1 cells; read-out: Jurkat HPD1 PDL1 IC50. A digest of the protocol: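 Binding of 20 nM (final) PE-tagged PD-L1-Ig to compound-pretreated Jurkat-hPD-1 cells was measured by high-content imaging after 1 h. Pretreatment ran 2 h at 37 °C in DMEM with 10% fetal calf serum.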
Usually IC50 stands for the concentration that gives 50% inhibition. For the molecule `Cc1cccc(C[C@@H]2NC(=O)[C@H](CC(=O)O)NC(=O)[C@H](Cc3ccc(OCC(=O)O)cc3)NC(=O)[C@H](Cc3ccc(C(F)(F)F)cc3)NC(=O)CSC[C@@H](C(=O)N[C@@H](CCN)C(=O)NCCOCCOCC(=O)NCCCCCCCCCCC(=O)O)NC(=O)[C@H](CCC(=O)O)NC(=O)[C@H](C(C)C)NC(=O)[C@H](CC3CCCCC3)NC(=O)[C@H](CCN)NC(=O)[C@@H](CC(C)C)NC(=O)[C@H](C)N(C)C(=O)[C@H](Cc3ccc(C(=O)O)cc3)NC(=O)[C@H](Cc3ccc(-c4ccccc4)cc3)NC(=O)[C@H](Cc3ccc(C(=O)O)cc3)NC2=O)c1` [Example 2578] ({CH2CO}-[Phe(4-CF3)]Y(Carboxymethyl)D[Phe(3-Me)][Phe(4-COOH)][Bip][Phe(4-COOH)][NMeA][dL][Dab][Cha]VEC[Dab][AEEA][Aun]-OH; thioether N-14), the IC50 came to 22.2 nM.
Take `CC(=O)NCCCC[C@@H]1NC(=O)[C@H](C(C)(C)O)NC(=O)[C@H](CC2CCCCC2)NC(=O)[C@H](CCN)NC(=O)[C@@H](CC(C)C)NC(=O)[C@H](C)N(C)C(=O)[C@H](CCC(N)=O)NC(=O)[C@H](Cc2ccc(-c3ccccc3)cc2)NC(=O)[C@H](Cc2ccc(C(=O)O)cc2)NC(=O)[C@H](Cc2cccc(C(F)(F)F)c2)NC(=O)[C@H](CC(=O)O)NC(=O)[C@H](Cc2ccc(OCC(=O)O)cc2)NC(=O)[C@H](Cc2ccc(OCC(=O)O)cc2)NC(=O)CSC[C@@H](C(=O)N[C@@H](CCN)C(=O)NCCOCCOCC(=O)NCCCCCCCCCCC(=O)O)NC1=O` [Example 2579] ({CH2CO}-Y(Carboxymethyl)Y(Carboxymethyl)D[Phe(3-CF3)][Phe(4-COOH)][Bip]Q[NMeA][dL][Dab][Cha][Val(3-OH)]K(Ac)C[Dab][AEEA][Aun]-OH; thioether N-14): the IC50 was determined as 2.6 nM.
Next, `CC(C)C[C@H]1NC(=O)[C@H](C)N(C)C(=O)[C@H](Cc2ccc(OCC(=O)O)cc2)NC(=O)[C@H](Cc2ccc(-c3ccccc3)cc2)NC(=O)[C@H](Cc2ccc(C(=O)O)cc2)NC(=O)[C@H](Cc2cccc(C(F)(F)F)c2)NC(=O)[C@H](CC(=O)O)NC(=O)[C@H](Cc2ccc(OCC(=O)O)cc2)NC(=O)[C@H](Cc2cnc[nH]2)NC(=O)CSC[C@@H](C(=O)N[C@@H](CCN)C(=O)NCCCCCCCCCCC(=O)O)NC(=O)[C@H](C(C)O)NC(=O)[C@H](C(C)C)NC(=O)[C@H](CC2CCCCC2)NC(=O)[C@H](CCN)NC1=O` (stereo partly drawn) [Example 2580] ({CH2CO}-HY(Carboxymethyl)D[Phe(3-CF3)][Phe(4-COOH)][Bip]Y(Carboxymethyl)[NMeA][dL][Dab][Cha]V[Thr(3ξ)]C[Dab][Aun]-OH; thioether N-14): 6.8 nM; `CC(C)C[C@H]1NC(=O)[C@H](C)N(C)C(=O)[C@H](Cc2ccc(OCC(=O)O)cc2)NC(=O)[C@H](Cc2ccc(-c3ccccc3)cc2)NC(=O)[C@H](Cc2ccc(C(=O)O)cc2)NC(=O)[C@H](Cc2cccc(C(F)(F)F)c2)NC(=O)[C@H](CC(=O)O)NC(=O)[C@H](Cc2ccc(OCC(=O)O)cc2)NC(=O)[C@H](Cc2cnc[nH]2)NC(=O)CSC[C@@H](C(=O)N[C@@H](CCN)C(=O)NCCCCCCCCCCC(=O)O)NC(=O)[C@H](CCC(=O)O)NC(=O)[C@H](C(C)C)NC(=O)[C@H](CC2CCCCC2)NC(=O)[C@H](CCN)NC1=O` [Example 2581] ({CH2CO}-HY(Carboxymethyl)D[Phe(3-CF3)][Phe(4-COOH)][Bip]Y(Carboxymethyl)[NMeA][dL][Dab][Cha]VEC[Dab][Aun]-OH; thioether N-14): 9.2 nM.
In the case of `Cc1cccc(C[C@@H]2NC(=O)[C@H](CC(=O)O)NC(=O)[C@H](Cc3ccc(C(=O)O)cc3)NC(=O)[C@H](C)NC(=O)CSC[C@@H](C(=O)N[C@@H](CCN)C(=O)NCCCCCCCCCCC(=O)O)NC(=O)[C@H](C(C)O)NC(=O)[C@H](C(C)C)NC(=O)[C@H](CC3CCCCC3)NC(=O)[C@H](CCN)NC(=O)[C@@H](CC(C)C)NC(=O)[C@H](C)N(C)C(=O)[C@H](Cc3ccc(C(=O)O)cc3)NC(=O)[C@H](Cc3ccc(-c4ccccc4)cc3)NC(=O)[C@H](Cc3ccc(C(F)(F)F)cc3)NC2=O)c1` (stereo partly drawn) [Example 2582] ({CH2CO}-A[Phe(4-COOH)]D[Phe(3-Me)][Phe(4-CF3)][Bip][Phe(4-COOH)][NMeA][dL][Dab][Cha]V[Thr(3ξ)]C[Dab][Aun]-OH; thioether N-14), the IC50 amounted to 21.3 nM.
Next, `CCC[C@@H]1NC(=O)[C@H](C(C)(C)O)NC(=O)[C@H](CC2CCCCC2)NC(=O)[C@H](CCN)NC(=O)[C@@H](CC(C)C)NC(=O)[C@H](C)N(C)C(=O)[C@H](Cc2ccc(C(=O)O)cc2)NC(=O)[C@H](Cc2ccc(-c3ccccc3)cc2)NC(=O)[C@H](Cc2ccc(C(=O)O)cc2)NC(=O)[C@H](Cc2cccc(C)c2)NC(=O)[C@H](CC(=O)O)NC(=O)[C@H](Cc2ccc(C(=O)O)cc2)NC(=O)[C@H](Cc2ccc(C(F)(F)F)cc2)NC(=O)CSC[C@@H](C(=O)N[C@@H](CCN)C(=O)NCCCCCCCCCCC(=O)O)NC1=O` [Example 2583] ({CH2CO}-[Phe(4-CF3)][Phe(4-COOH)]D[Phe(3-Me)][Phe(4-COOH)][Bip][Phe(4-COOH)][NMeA][dL][Dab][Cha][Val(3-OH)][Nva]C[Dab][Aun]-OH; thioether N-14): 37.5 nM; `CC(C)C[C@H]1NC(=O)[C@H](C)N(C)C(=O)[C@H](Cc2ccc(C(=O)O)cc2)NC(=O)[C@H](Cc2ccc(-c3ccccc3)cc2)NC(=O)[C@H](Cc2ccc(C(=O)O)cc2)NC(=O)[C@H](Cc2cccc(C(F)(F)F)c2)NC(=O)[C@H](CC(=O)O)NC(=O)[C@H](Cc2ccc(C(=O)O)cc2)NC(=O)[C@H](Cc2ccc(OCC(=O)O)cc2)NC(=O)CSC[C@@H](C(=O)N[C@@H](CCN)C(=O)NCCCCCCCCCCC(=O)O)NC(=O)[C@H](CO)NC(=O)[C@H](C(C)(C)O)NC(=O)[C@H](CC2CCCCC2)NC(=O)[C@H](CCN)NC1=O` [Example 2585] ({CH2CO}-Y(Carboxymethyl)[Phe(4-COOH)]D[Phe(3-CF3)][Phe(4-COOH)][Bip][Phe(4-COOH)][NMeA][dL][Dab][Cha][Val(3-OH)]SC[Dab][Aun]-OH; thioether N-14): 2.5 nM.
Consider `CCC(C)[C@@H]1NC(=O)[C@H](Cc2ccc(-c3ccccc3)cc2)NC(=O)[C@H](Cc2ccc(C(F)(F)F)cc2)NC(=O)[C@H](Cc2cccc(F)c2)NC(=O)[C@H](CC(=O)O)NC(=O)[C@H](Cc2ccc(C(=O)O)cc2)NC(=O)[C@H](Cc2cnc[nH]2)NC(=O)CSC[C@@H](C(=O)N[C@@H](CCN)C(=O)NCCCCCCCCCCC(=O)O)NC(=O)[C@H](CO)NC(=O)[C@H](C(C)(C)O)NC(=O)[C@H](CC2CCCCC2)NC(=O)[C@H](CCN)NC(=O)[C@@H](CC(C)C)NC(=O)[C@H](C)N(C)C1=O` (stereo partly drawn) [Example 2586] ({CH2CO}-H[Phe(4-COOH)]D[Phe(3-F)][Phe(4-CF3)][Bip][Ile(3ξ)][NMeA][dL][Dab][Cha][Val(3-OH)]SC[Dab][Aun]-OH; thioether N-14), for which the IC50 is 14.1 nM.
For the molecule `CCC(C)[C@@H]1NC(=O)[C@H](Cc2ccc(-c3ccccc3)cc2)NC(=O)[C@H](C(C)C)NC(=O)[C@H](Cc2c[nH]c3ccccc23)NC(=O)[C@H](CC(=O)O)NC(=O)[C@H](Cc2ccc(OCC(=O)O)cc2)NC(=O)[C@H](Cc2ccc(OCC(=O)O)cc2)NC(=O)CSC[C@@H](C(=O)N[C@@H](CCN)C(=O)NCCOCCOCC(=O)NCCCCCCCCCCC(=O)O)NC(=O)[C@H](CCCNC(N)=O)NC(=O)[C@H](C(C)(C)O)NC(=O)[C@H](CC2CCCCC2)NC(=O)[C@H](Cc2cnc[nH]2)NC(=O)[C@@H](CC(C)C)NC(=O)[C@H](C)N(C)C1=O` (stereo partly drawn) [Example 2587] ({CH2CO}-Y(Carboxymethyl)Y(Carboxymethyl)DWV[Bip][Ile(3ξ)][NMeA][dL]H[Cha][Val(3-OH)][Cit]C[Dab][AEEA][Aun]-OH; thioether N-14), the IC50 amounted to 13.5 nM.
Take `CCC(C)[C@@H]1NC(=O)[C@H](Cc2ccc(-c3ccccc3)cc2)NC(=O)[C@H](C(C)C)NC(=O)[C@H](Cc2c[nH]c3ccccc23)NC(=O)[C@H](CC(=O)O)NC(=O)[C@H](Cc2ccc(OCC(=O)O)cc2)NC(=O)[C@H](Cc2ccc(OCC(=O)O)cc2)NC(=O)CSC[C@@H](C(=O)N[C@@H](CCN)C(=O)NCCOCCOCC(=O)NCCCCCCCCCCC(=O)O)NC(=O)[C@H](CCCCNC(C)=O)NC(=O)[C@H](C(C)(C)O)NC(=O)[C@H](CC2CCCCC2)NC(=O)[C@H](Cc2cnc[nH]2)NC(=O)[C@@H](CC(C)C)NC(=O)[C@H](C)N(C)C1=O` (stereo partly drawn) [Example 2588] ({CH2CO}-Y(Carboxymethyl)Y(Carboxymethyl)DWV[Bip][Ile(3ξ)][NMeA][dL]H[Cha][Val(3-OH)]K(Ac)C[Dab][AEEA][Aun]-OH; thioether N-14): the IC50 amounted to 4.2 nM.
Take `CCC[C@@H]1NC(=O)[C@H](C(C)(C)O)NC(=O)[C@H](CC2CCCCC2)NC(=O)[C@H](Cc2cnc[nH]2)NC(=O)[C@@H](CC(C)C)NC(=O)[C@H](C)N(C)C(=O)[C@H](C(C)CC)NC(=O)[C@H](Cc2ccc(-c3ccccc3)cc2)NC(=O)[C@H](C(C)C)NC(=O)[C@H](Cc2c[nH]c3ccccc23)NC(=O)[C@H](CC(=O)O)NC(=O)[C@H](Cc2ccc(OCC(=O)O)cc2)NC(=O)[C@H](Cc2ccc(OCC(=O)O)cc2)NC(=O)CSC[C@@H](C(=O)N[C@@H](CCN)C(=O)NCCOCCOCC(=O)NCCCCCCCCCCC(=O)O)NC1=O` (stereo partly drawn) [Example 2589] ({CH2CO}-Y(Carboxymethyl)Y(Carboxymethyl)DWV[Bip][Ile(3ξ)][NMeA][dL]H[Cha][Val(3-OH)][Nva]C[Dab][AEEA][Aun]-OH; thioether N-14): the IC50 came to 35.6 nM.
Next, `CCC(C)[C@@H]1NC(=O)[C@H](Cc2ccc(-c3ccccc3)cc2)NC(=O)[C@H](Cc2ccc(C(F)(F)F)cc2)NC(=O)[C@H](Cc2c[nH]c3ccccc23)NC(=O)[C@H](CC(=O)O)NC(=O)[C@H](Cc2ccc(OCC(=O)O)cc2)NC(=O)[C@H](Cc2cnc[nH]2)NC(=O)CSC[C@@H](C(=O)N[C@@H](CCN)C(=O)NCCOCCOCC(=O)NCCCCCCCCCCC(=O)O)NC(=O)[C@H](CCC(=O)O)NC(=O)[C@H](C(C)(C)O)NC(=O)[C@H](CC2CCCCC2)NC(=O)[C@H](CCN)NC(=O)[C@@H](CC(C)C)NC(=O)[C@H](C)N(C)C1=O` (stereo partly drawn) [Example 2590] ({CH2CO}-HY(Carboxymethyl)DW[Phe(4-CF3)][Bip][Ile(3ξ)][NMeA][dL][Dab][Cha][Val(3-OH)]EC[Dab][AEEA][Aun]-OH; thioether N-14): 185 nM.
